Measurements from patent US9833490B1, “Drug combination for the treatment of infertility and its preparation methods and applications” (SICHUAN SHANZE BIOTECH.,LTD., priority 2017, dated 2017).

Biological target: xanthine oxidase (Homo sapiens, UniProt P47989)
Assay: Xanthine oxidase inhibitory activity
Type: biochemical
Settings: relative to allopurinol

Sequence of xanthine oxidase (P47989 whole entry, species assumed): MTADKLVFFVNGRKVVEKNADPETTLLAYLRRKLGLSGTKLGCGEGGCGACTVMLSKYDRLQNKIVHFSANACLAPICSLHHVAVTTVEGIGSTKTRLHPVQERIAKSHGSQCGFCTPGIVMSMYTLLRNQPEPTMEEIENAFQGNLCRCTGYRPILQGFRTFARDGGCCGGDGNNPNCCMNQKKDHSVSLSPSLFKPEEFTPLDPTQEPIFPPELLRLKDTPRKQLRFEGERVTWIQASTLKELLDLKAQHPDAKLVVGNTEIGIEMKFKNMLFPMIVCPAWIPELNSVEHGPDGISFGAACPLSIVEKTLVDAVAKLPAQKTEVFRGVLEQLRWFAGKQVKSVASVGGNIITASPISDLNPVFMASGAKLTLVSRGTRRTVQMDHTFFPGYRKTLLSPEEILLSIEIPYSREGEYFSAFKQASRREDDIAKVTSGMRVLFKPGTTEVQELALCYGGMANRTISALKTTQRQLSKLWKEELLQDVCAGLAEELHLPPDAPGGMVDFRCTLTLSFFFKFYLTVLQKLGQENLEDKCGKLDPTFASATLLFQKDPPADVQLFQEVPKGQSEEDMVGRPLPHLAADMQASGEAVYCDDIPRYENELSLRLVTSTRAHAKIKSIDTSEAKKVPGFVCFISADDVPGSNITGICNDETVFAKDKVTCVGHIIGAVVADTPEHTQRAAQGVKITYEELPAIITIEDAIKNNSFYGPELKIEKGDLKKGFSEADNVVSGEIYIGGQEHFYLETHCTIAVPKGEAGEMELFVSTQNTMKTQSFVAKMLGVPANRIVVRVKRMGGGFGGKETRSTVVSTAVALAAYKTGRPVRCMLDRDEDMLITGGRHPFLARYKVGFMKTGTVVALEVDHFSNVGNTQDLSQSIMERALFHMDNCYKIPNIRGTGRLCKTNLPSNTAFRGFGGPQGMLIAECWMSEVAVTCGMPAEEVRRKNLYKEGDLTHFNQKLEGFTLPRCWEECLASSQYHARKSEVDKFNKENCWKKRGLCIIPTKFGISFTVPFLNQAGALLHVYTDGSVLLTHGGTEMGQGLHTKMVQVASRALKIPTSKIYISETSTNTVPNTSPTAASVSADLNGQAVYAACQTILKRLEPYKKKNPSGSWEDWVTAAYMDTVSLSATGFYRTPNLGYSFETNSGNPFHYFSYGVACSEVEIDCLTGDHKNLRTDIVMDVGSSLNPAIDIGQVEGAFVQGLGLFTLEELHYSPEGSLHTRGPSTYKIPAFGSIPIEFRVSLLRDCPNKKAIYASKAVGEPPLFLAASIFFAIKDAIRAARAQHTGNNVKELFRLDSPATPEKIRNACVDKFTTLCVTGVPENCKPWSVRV

Compound	xanthine oxidase inhibitory activity, fold higher than allopurinol [fold]
O=c1c(O)c(-c2ccc(O)c(O)c2)oc2c(O)c(O)ccc12 [melanoxetin, 3,7,8,3′,4′-pentahydroxyflavone]	17
O=C(/C=C/c1ccc(O)c(O)c1)c1ccc(O)c(O)c1O [okanin, 3,4,2′,3′,4′-pentahydroxy trans-chalcone]	63
